The target of experiment [1] is HDAC2 (Homo sapiens (Human), UniProt Q92769). The experiment in a line: biochemical HDAC assay (Reaction Biology Corp.), HDAC2. To be noted: fluorogenic peptide RHKK(Ac)AMC; 10-dose, 3-fold dilution from 10 μM. Here is the method: (§1) The inhibitory activities of compounds of present invention were determined using biochemical HDAC assays (Reaction Biology Corp. biochemical assay services). Compound with indicated doses was tested in the biochemical assays of HDAC 1, HDAC2, HDAC3, HDAC4, HDAC5, HDAC6, HDAC7, HDAC 8, HDAC9, HDAC10, and HDAC11 enzyme.
Chain of HDAC2 (Q92769 whole entry): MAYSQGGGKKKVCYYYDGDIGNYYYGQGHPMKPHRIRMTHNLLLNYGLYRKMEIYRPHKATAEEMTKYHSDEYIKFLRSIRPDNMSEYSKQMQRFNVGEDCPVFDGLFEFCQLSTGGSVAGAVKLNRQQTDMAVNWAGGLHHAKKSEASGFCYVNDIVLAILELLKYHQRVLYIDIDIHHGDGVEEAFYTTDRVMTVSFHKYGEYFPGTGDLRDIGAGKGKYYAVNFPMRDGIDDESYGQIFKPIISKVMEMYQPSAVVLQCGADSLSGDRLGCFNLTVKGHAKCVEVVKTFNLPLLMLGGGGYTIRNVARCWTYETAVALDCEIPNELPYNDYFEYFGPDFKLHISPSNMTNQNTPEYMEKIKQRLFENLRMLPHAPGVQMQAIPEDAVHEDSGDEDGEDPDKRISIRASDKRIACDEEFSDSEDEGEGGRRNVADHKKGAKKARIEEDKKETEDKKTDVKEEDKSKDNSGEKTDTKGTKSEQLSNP
(§2) Compounds were tested in singlicate 10-dose IC50 mode with 3-fold serial dilution starting at 10 μM against 11 HDACs. HDAC reference compounds Trichostatin A (TSA) and TMP269 were tested in a 10-dose IC50 with 3-fold serial dilution starting at 10 μM.
(§3) Substrate for HDAC1,2,3,6,10: Fluorogenic peptide from p53 residues 379-382 (RHKK(Ac)AMC). Substrate for HDAC4,5,7,9, and 11: Fluorogenic HDAC Class2a Substrate (Trifluoroacetyl Lysine). Substrate for HDAC 8: Fluorogenic peptide from p53 residues 379-382 (RHK(Ac)K(Ac)AMC).
(§4) General Reaction Procedure: (Standard IC50 determination) • a. 2× enzyme was added to wells of reaction plate except to No Enzyme (No En) control wells. Add buffer in No En wells. • b. Compounds to be tested in 100% DMSO were added to the enzyme mixture by Acoustic technology (Echo550; nanoliter range). The mixture was spinned down and preincubated. • c. 2× Substrate Mixture (Fluorogenic HDAC Substrate and co-factor (500 μM of Nicotinamide adenine dinucleotide (NAD<+>) in all Sirt assay) were added to all reaction wells to initiate the reaction. The plates were spinned and shaken. • d. The plates were incubated for 1-2 hr. at 30° C. with seal. • e. Developer with Trichostatin A (or TMP269 or NAD<+>) was added to stop the reaction and to generate fluorescent color. • f. Fluorescence was read (excitatory, 360; emission, 460) using the EnVision Multilabel Plate Reader (Perkin Elmer) • g. Endpoint reading was taken for analysis after the development reaches plateau.
(§5) Data Analysis: The percentages of enzyme activity (relative to DMSO controls) and IC50 values were calculated using the GraphPad Prism 4 program based on a sigmoidal dose-response equation. The blank (DMSO) value was entered as 1.00E-12 of concentration for curve fitting.

Experiment [2] concerns the target HDAC8 (Homo sapiens (Human), UniProt Q9BY41). The experiment in a line: biochemical HDAC assay (Reaction Biology Corp.), HDAC8. To be noted: fluorogenic peptide RHK(Ac)K(Ac)AMC; 10-dose, 3-fold dilution from 10 μM. Here is the method: as §1, §2, §3, §4, §5
Experiment [3] deals with HDAC 1 (Homo sapiens (Human), UniProt Q13547). The experiment in a line: biochemical HDAC assay (Reaction Biology Corp.), HDAC1. To be noted: fluorogenic peptide RHKK(Ac)AMC; 10-dose, 3-fold dilution from 10 μM. Here is the method: The inhibitory activities of compounds of present invention were determined using biochemical HDAC assays (Reaction Biology Corp. biochemical assay services). Compound with indicated doses was tested in the biochemical assays of HDAC 1, HDAC2, HDAC3, HDAC4, HDAC5, HDAC6, HDAC7, HDAC 8, HDAC9, HDAC10, and HDAC11 enzyme. Compounds were tested in singlicate 10-dose IC50 mode with 3-fold serial dilution starting at 10 μM against 11 HDACs. HDAC reference compounds Trichostatin A (TSA) and TMP269 were tested in a 10-dose IC50 with 3-fold serial dilution starting at 10 μM. Substrate for HDAC1,2,3,6,10: Fluorogenic peptide from p53 residues 379-382 (RHKK(Ac)AMC). Substrate for HDAC4,5,7,9, and 11: Fluorogenic HDAC Class2a Substrate (Trifluoroacetyl Lysine). Substrate for HDAC 8: Fluorogenic peptide from p53 residues 379-382 (RHK(Ac)K(Ac)AMC). General Reaction Procedure: (Standard IC50 determination) • a. 2× enzyme was added to wells of reaction plate except to No Enzyme (No En) control wells. Add buffer in No En wells. • b. Compounds to be tested in 100% DMSO were added to the enzyme mixture by Acoustic technology (Echo550; nanoliter range). The mixture was spinned down and preincubated. • c. 2× Substrate Mixture (Fluorogenic HDAC Substrate and co-factor (500 μM of Nicotinamide adenine dinucleotide (NAD<+>) in all Sirt assay) were added to all reaction wells to initiate the reaction. The plates were spinned and shaken. • d. The plates were incubated for 1-2 hr. at 30° C. with seal. • e. Developer with Trichostatin A (or TMP269 or NAD<+>) was added to stop the reaction and to generate fluorescent color. • f. Fluorescence was read (excitatory, 360; emission, 460) using the EnVision Multilabel Plate Reader (Perkin Elmer) • g. Endpoint reading was taken for analysis after the development reaches plateau. Data Analysis: The percentages of enzyme activity (relative to DMSO controls) and IC50 values were calculated using the GraphPad Prism 4 program based on a sigmoidal dose-response equation. The blank (DMSO) value was entered as 1.00E-12 of concentration for curve fitting.
Chain of HDAC 1 (Q13547 whole entry, the tested form may be a part): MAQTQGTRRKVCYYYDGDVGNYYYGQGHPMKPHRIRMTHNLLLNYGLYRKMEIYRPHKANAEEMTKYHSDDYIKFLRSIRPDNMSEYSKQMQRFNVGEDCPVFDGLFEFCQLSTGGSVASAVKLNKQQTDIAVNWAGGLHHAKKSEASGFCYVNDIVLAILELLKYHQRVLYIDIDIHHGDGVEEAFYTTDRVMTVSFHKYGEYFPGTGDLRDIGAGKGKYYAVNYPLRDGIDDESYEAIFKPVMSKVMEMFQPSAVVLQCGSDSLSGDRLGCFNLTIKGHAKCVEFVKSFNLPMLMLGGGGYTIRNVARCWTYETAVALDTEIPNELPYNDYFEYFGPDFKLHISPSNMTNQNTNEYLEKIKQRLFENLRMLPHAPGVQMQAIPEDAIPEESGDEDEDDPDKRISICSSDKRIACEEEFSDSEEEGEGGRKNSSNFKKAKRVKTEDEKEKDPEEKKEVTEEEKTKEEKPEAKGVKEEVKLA

The target in experiment [4] is HDAC10 (Homo sapiens (Human), UniProt Q969S8). The experiment in a line: biochemical HDAC assay (Reaction Biology Corp.), HDAC10. As to conditions: fluorogenic peptide RHKK(Ac)AMC; 10-dose, 3-fold dilution from 10 μM. Here is the method: as §1, §2, §3, §4, §5
Chain of HDAC10 (Q969S8 whole entry): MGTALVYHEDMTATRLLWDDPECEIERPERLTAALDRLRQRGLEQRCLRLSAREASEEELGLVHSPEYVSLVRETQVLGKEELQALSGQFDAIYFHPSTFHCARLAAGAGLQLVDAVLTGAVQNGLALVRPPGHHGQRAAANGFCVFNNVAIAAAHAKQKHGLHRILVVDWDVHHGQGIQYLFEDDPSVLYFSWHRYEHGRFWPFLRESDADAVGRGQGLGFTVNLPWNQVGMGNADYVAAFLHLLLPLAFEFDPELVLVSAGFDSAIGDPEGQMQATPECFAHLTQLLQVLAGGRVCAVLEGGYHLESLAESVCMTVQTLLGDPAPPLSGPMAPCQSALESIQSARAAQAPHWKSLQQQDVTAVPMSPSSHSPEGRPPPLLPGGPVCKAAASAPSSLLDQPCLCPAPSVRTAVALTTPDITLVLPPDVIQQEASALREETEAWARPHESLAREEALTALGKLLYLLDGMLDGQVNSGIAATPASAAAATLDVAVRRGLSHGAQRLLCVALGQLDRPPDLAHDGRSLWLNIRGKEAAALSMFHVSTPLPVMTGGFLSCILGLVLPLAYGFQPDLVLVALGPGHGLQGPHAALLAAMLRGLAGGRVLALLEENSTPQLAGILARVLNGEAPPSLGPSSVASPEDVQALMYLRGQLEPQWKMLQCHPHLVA
For experiment [5], the target named is HDAC3 (Homo sapiens (Human), UniProt O15379). The experiment in a line: biochemical HDAC assay (Reaction Biology Corp.), HDAC3. As to conditions: fluorogenic peptide RHKK(Ac)AMC; 10-dose, 3-fold dilution from 10 μM. Here is the method: as §1, §2, §3, §4, §5
Chain of HDAC3 (O15379 whole entry): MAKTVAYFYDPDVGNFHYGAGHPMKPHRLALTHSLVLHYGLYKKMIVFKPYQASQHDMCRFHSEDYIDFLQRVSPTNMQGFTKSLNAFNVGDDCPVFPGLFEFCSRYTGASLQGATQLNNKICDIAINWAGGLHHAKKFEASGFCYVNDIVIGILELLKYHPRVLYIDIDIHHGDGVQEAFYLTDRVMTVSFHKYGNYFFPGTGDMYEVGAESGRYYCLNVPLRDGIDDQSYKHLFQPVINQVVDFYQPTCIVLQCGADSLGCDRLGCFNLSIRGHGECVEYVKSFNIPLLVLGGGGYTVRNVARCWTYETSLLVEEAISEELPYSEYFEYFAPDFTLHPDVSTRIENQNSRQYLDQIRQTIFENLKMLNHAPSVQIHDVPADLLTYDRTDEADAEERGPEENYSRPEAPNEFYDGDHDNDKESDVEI
Chain of HDAC3 (Q9Y618 395-489 partner): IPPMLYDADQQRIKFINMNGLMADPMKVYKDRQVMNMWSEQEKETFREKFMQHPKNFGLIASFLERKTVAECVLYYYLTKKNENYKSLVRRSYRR
Experiment [6] addresses HDAC6 (Homo sapiens (Human), UniProt Q9UBN7). The experiment in a line: biochemical HDAC assay (Reaction Biology Corp.), HDAC6. To be noted: fluorogenic peptide RHKK(Ac)AMC; 10-dose, 3-fold dilution from 10 μM. Here is the method:
as §1, §2, §3, §4, §5

Here are results for 21 compounds from US11241428B2, “Heteroaryl amide derivatives as selective inhibitors of histone deacetylases 1 and/or 2(HDAC1-2)” (Medibiofarma, S.L., priority 2017, dated 2022).

Chain of HDAC8 (Q9BY41 whole entry): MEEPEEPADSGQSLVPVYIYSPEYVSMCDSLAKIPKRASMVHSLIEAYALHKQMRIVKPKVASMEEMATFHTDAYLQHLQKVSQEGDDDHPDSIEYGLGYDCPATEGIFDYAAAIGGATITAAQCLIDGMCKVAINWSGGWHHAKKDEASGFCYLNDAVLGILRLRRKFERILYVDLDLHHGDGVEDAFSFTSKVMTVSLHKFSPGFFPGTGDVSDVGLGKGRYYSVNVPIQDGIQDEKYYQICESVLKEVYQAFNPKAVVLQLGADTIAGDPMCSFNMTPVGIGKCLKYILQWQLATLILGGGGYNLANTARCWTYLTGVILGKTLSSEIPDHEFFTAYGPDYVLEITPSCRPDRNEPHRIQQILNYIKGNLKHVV
Chain of HDAC6 (Q9UBN7 whole entry): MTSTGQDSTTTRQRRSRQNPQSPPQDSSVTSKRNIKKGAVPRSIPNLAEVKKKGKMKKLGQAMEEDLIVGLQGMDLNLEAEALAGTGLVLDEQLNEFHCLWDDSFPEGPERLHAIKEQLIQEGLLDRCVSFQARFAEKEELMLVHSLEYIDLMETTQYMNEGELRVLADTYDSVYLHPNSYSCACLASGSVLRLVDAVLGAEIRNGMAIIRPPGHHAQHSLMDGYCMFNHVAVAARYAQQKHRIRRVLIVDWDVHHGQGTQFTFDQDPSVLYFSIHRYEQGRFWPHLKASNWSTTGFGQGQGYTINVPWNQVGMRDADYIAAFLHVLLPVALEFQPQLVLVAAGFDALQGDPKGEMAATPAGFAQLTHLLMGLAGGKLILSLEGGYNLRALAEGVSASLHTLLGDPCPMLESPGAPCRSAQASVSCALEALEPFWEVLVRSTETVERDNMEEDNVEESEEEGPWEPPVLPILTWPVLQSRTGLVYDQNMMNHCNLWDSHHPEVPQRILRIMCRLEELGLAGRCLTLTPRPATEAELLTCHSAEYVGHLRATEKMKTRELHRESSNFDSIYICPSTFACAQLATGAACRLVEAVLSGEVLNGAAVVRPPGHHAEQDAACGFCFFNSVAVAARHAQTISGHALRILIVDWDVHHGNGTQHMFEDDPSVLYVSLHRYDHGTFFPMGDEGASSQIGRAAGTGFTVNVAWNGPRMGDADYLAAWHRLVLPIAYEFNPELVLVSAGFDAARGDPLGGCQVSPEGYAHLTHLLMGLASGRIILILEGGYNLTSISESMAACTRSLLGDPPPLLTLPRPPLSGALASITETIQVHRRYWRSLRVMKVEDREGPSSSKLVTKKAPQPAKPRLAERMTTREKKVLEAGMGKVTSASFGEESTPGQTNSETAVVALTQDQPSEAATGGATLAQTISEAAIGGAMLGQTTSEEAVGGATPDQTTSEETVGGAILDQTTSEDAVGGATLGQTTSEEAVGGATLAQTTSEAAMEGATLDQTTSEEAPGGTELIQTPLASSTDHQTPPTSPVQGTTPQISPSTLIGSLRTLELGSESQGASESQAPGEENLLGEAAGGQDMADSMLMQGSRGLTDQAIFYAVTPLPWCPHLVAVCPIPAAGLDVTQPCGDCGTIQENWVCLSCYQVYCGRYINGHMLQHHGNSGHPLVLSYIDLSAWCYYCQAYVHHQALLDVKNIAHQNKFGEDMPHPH

What is called IC50 is the midpoint of a concentration-inhibition curve. Read a high IC50 as lower potency. As to `CN1CCN(c2ccc(C(=O)Nc3nc(-c4ccccc4)ccc3N)cn2)CC1` [Example 1, N-(3-amino-6-phenylpyridin-2-yl)-6-(4-methylpiperazin-1-yl)nicotinamide], the IC50 in experiment [1] is less than 0.2 µM.
Compound `Nc1ccc(-c2ccccc2)nc1NC(=O)c1cccnc1` [Example 2, N-(3-amino-6-phenylpyridin-2-yl)nicotinamide] yielded an IC50 in experiment [1] of less than 0.2 µM.
The same measure, in the same setting: the result for `Nc1ccc(-c2ccc(F)cc2)nc1NC(=O)c1cccnc1` [Example 3, N-(3-amino-6-(4-fluorophenyl)pyridin-2-yl)nicotinamide] reads less than 0.2 µM.
In experiment [1], `Nc1ccc(-c2ccccc2)nc1NC(=O)c1ccc(N2CCOCC2)nc1` [Example 4, N-(3-amino-6-phenylpyridin-2-yl)-6-morpholinonicotinamide] showed an IC50 of less than 0.2 µM.
As to `Nc1ccc(-c2ccc(F)cc2)nc1NC(=O)c1ccc(N2CCOCC2)nc1` [Example 5, N-(3-amino-6-(4-fluorophenyl)pyridin-2-yl)-6-morpholinonicotinamide], the IC50 in experiment [2] is no less than 50 µM; in experiment [3], less than 0.2 µM; in experiment [4] it was 1 to 50 µM; in experiment [5], no less than 50 µM; in experiment [1], less than 0.2 µM.
Regarding `CN1CCN(c2ccc(C(=O)Nc3nc(-c4ccc(F)cc4)ccc3N)cn2)CC1` [Example 6, N-(3-amino-6-(4-fluorophenyl)pyridin-2-yl)-6-(4-methylpiperazin-1-yl)nicotinamide], the IC50 in experiment [6] is no less than 50 µM; in experiment [2], no less than 50 µM; in experiment [3], less than 0.2 µM; in experiment [4], 1 to 50 µM; in experiment [5], no less than 50 µM; in experiment [1], less than 0.2 µM.
As to `COc1ccc(-c2ccc(N)c(NC(=O)c3ccc(N4CCN(C)CC4)nc3)n2)cc1` [Example 7, N-(3-amino-6-(4-methoxyphenyl)pyridin-2-yl)-6-(4-methylpiperazin-1-yl)nicotinamide], the IC50 in experiment [1] fell in the range of 0.2 to 1 µM.
For `CN1CCN(c2ccc(C(=O)Nc3nc(-c4ccncc4)ccc3N)cn2)CC1` [Example 8, N-(5-amino-[2,4′-bipyridin]-6-yl)-6-(4-methylpiperazin-1-yl)nicotinamide], the IC50 in experiment [1] is 0.2 to 1 µM.
For `CN1CCN(c2ccc(C(=O)Nc3nc(-c4ccc(F)c(F)c4)ccc3N)cn2)CC1` [Example 9, N-(3-amino-6-(3,4-difluorophenyl)pyridin-2-yl)-6-(4-methylpiperazin-1-yl)nicotinamide], the IC50 in experiment [1] lay within 0.2 to 1 µM.
For the compound `CN1CCN(c2ncc(C(=O)Nc3nc(-c4ccccc4)ccc3N)cn2)CC1` [Example 10, N-(3-amino-6-phenylpyridin-2-yl)-2-(4-methylpiperazin-1-yl)pyrimidine-5-carboxamide], the IC50 in experiment [1] was less than 0.2 µM.
Still for that read-out and setting: the figure for `Nc1ccc(-c2ccc(F)cc2)nc1NC(=O)c1cnc(N2CCOCC2)nc1` [Example 14, N-(3-amino-6-(4-fluorophenyl)pyridin-2-yl)-2-morpholinopyrimidine-5-carboxamide] is less than 0.2 µM; for `CN1CCN(c2ncc(C(=O)Nc3nc(-c4ccc(F)cc4)ccc3N)cn2)CC1` [Example 15, N-(3-amino-6-(4-fluorophenyl)pyridin-2-yl)-2-(4-methylpiperazin-1-yl)pyrimidine-5-carboxamide] it is less than 0.2 µM.
Consider `Nc1ccc(-c2ccccc2)nc1NC(=O)c1cnc(NC2CC2)nc1` [Example 16, N-(3-amino-6-phenylpyridin-2-yl)-2-(cyclopropylamino)pyrimidine-5-carboxamide], for which the IC50 in experiment [1] is less than 0.2 µM.
Consider `Nc1ccc(-c2ccc(F)cc2)nc1NC(=O)c1cnc(NC2CC2)nc1` [Example 17, N-(3-amino-6-(4-fluorophenyl)pyridin-2-yl)-2-(cyclopropylamino)pyrimidine-5-carboxamide], for which the IC50 is 1 to 50 µM in experiment [3], no less than 50 µM in experiment [4], no less than 50 µM in experiment [5] and less than 0.2 µM in experiment [1].
`Nc1ccc(-c2ccc(F)cc2)nc1NC(=O)c1ccc(-c2cccnc2)nc1` [Example 21, N-(3-amino-6-(4-fluorophenyl)pyridin-2-yl)-[2,3′-bipyridine]-5-carboxamide] registered an IC50 in experiment [1] of 0.2 to 1 µM.
On to `N#Cc1cccc(-c2ccc(C(=O)Nc3nc(-c4ccc(F)cc4)ccc3N)cn2)c1` [Example 22, N-(3-amino-6-(4-fluorophenyl)pyridin-2-yl)-6-(3-cyanophenyl)nicotinamide], for which the IC50 in experiment [1] was 0.2 to 1 µM.
Take `Nc1ccc(-c2ccc(F)cc2)nc1NC(=O)c1ccc(N2CCNCC2)nc1` [Example 25, N-(3-amino-6-(4-fluorophenyl)pyridin-2-yl)-6-(piperazin-1-yl)nicotinamide]: the IC50 is 1 to 50 µM in experiment [6]; no less than 50 µM in experiment [2]; 0.2 to 1 µM in experiment [3]; 1 to 50 µM in experiment [4]; no less than 50 µM in experiment [5]; less than 0.2 µM in experiment [1].
Consider `Nc1ccc(-c2ccc(F)cc2)nc1NC(=O)c1ccc(N2CCC(N)CC2)nc1` [Example 27, N-(3-amino-6-(4-fluorophenyl)pyridin-2-yl)-6-(4-aminopiperidin-1-yl)nicotinamide], for which the IC50 in experiment [6] is 1 to 50 µM; in experiment [3], less than 0.2 µM; in experiment [4], 1 to 50 µM; in experiment [5] it was no less than 50 µM; in experiment [1], less than 0.2 µM.
Consider `CN1CCN(c2ccc(C(=O)Nc3nc(-c4cccs4)ccc3N)cn2)CC1` [Example 29, N-(3-amino-6-(thiophen-2-yl)pyridin-2-yl)-6-(4-methylpiperazin-1-yl)nicotinamide], for which the IC50 is 1 to 50 µM in experiment [6]; less than 0.2 µM in experiment [3]; 1 to 50 µM in experiment [4]; 1 to 50 µM in experiment [5]; less than 0.2 µM in experiment [1].
Consider `CN1CCN(CCNc2ccc(C(=O)Nc3nc(-c4ccc(F)cc4)ccc3N)cn2)CC1` [Example 30, N-(3-amino-6-(4-fluorophenyl)pyridin-2-yl)-6-((2-(4-methylpiperazin-1-yl)ethyl)amino)nicotinamide], for which the IC50 in experiment [1] was less than 0.2 µM.
On to “N-(3-amino-6-(4-fluorophenyl)pyridin-2-yl)-6-(4-methylpiperazin-1-yl)nicotinamide [Example 13]”, for which, in experiment [1], the IC50 was less than 0.2 µM.
